Results reported in patent US20050032124A1, “Identification of genotype-selective agents for treating Huntington's disease” (priority 2003, published 2005).
Values after ≈ are worked out from the molar mass of the structure shown. Read-outs that look alike come from different tables or passages of the source.

How the values were obtained:
Assay in all cases: Calcein AM viability assay, dilution-series retest
TIP5/TERT/E6 cells = type: cell-based; details: Homo sapiens, 48 h, read-out: IC50, TIP-TERT/E6
Text: (§1) In a third series, cell lines derived from independently prepared human TIP5 foreskin fibroblasts created by introducing cDNA constructs encoding hTERT, LT, ST and RASV12 (Lessnick et al., 2002, Cancer Cell 1, 393-401) were used. These cell lines were called, respectively: TIP5/TERT, TIP5/TERT/LT, TIP5/TERT/LT/ST, and TIP5/TERT/LT/ST/RAS^V12. In a fourth series, cell lines derived from TIP5 fibroblasts created by introducing cDNA constructs encoding hTERT, E6, E7, ST and RAS^V12 were used. These cell lines were named, respectively: TIP5/TERT/E6, TIP5/TERT/E6/E7, TIP5/TERT/E6/E7/ST, and TIP5/TERT/E6/E7/ST/RAS^V12. In this series, HPV E6 and E7, which inactivate p53 and RB, respectively, serve a similar function as LT in the previous series. However, by using HPV E6 and E7, Applicants were able to observe the effects of inactivating, separately and independently, p53 and RB. Results of a large-scale screen for compounds that display selective killing of these engineered tumorigenic cell lines are described in the examples that follow.
(§2) Calcein acetoxylmethyl ester (AM) is a cell membrane-permeable, non-fluorescent compound that is cleaved by intracellular esterases to form the anionic, cell-impermeable, fluorescent compound calcein. Viable cells are stained by calcein because of the presence of intracellular esterases and because the intact plasma membrane prevents fluorescent calcein from leaking out of cells (Wang et al., 1993, supra). Cells were seeded in 384-well plates using a Zymark Sciclone ALH, treated with each compound in triplicate at 4 μg/mL in the primary screen for two days, washed with phosphate-buffered saline on a Packard Minitrak with a 384-well washer and incubated for four hours with 0.7 μg/mL calcein (Molecular Probes). Total fluorescence intensity in each well was recorded on a Packard Fusion platereader, and converted to a percent inhibition of signal by subtracting the instrument background and dividing by the average signal obtained when cells were not treated with any compound.
(§3) Replica daughter plates were prepared with a Zymark Sciclone ALH and integrated Twister II by diluting stock plates 50 fold in medium lacking serum and pen/strep to obtain a compound concentration in daughter plates of 80 μg/ml with 2% DMSO. Assay plates were prepared by seeding cells in black, clear bottom 384-well plates in columns 1-23 (6000 cells/well in 57 μl) using a syringe bulk dispenser. Columns 3-22 were treated with compounds from a daughter library plate by transferring 3 μl from the daughter library plate using 384-position fixed cannula array. The final compound concentrations in assay plates were thus 4 μg/ml. The assay plates were incubated for 48 hours at 37° C. in humidified incubator containing 5% CO2. Plate processing for the calcein AM viability assay was performed using an integrated Minitrak/Sidetrak robotic system from Packard Bioscience (Perkin Elmer). Assay plates were washed with phosphate buffered saline, and 20 μl of calcein AM (0.7 μg/ml) per well was added. Plates were incubated at room temperature for 4 hours. Fluorescence intensity was determined using a Fusion platereader with filters centered on an excitation of 485 nm and an emission of 535 nm.
(§4) Compounds to be retested were purchased from manufacturers. Stocks were prepared in DMSO at a concentration of 1 mg/ml in 384-well polypropylene plates with a 16-point, two-fold dilution dose curve of each compound in a column, in duplicates. Column 1-2 and 23-24 were left empty for controls. Daughter retest plates were prepared from stock retest plate by diluting 66.6 fold in DMEM in 384-well deep-deep well plates (4.5 μl transfer into 300 μl). Cells were seeded at a density of 6000 per well in 40 μl, and 20 μl was added from a daughter retest plate. The plates were incubated for two days at 37° C. with 5% CO2.
(§5) Mean RFU (relative fluorescence units) for untreated cells was calculated by averaging columns 1, 2, and 23 (wells with cells but lacking compounds). […]

TIP5/TERT/LT/ST cells = type: cell-based; details: Homo sapiens, 48 h, read-out: IC50, TIP5 TERT/LT/ST
Text: as §1, §2, §3, §4, §5

TIP5/TERT cells = type: cell-based, human; details: Homo sapiens, 48 h, read-out: IC50, TIP5-TERT
Text: as §1, §2, §3, §4, §5

TIP5/TERT/E6/E7 cells = type: cell-based, human; details: for IC50: Homo sapiens, 48 h, read-out: IC50, TIP5-TERT/E6E7
Text: as §1, §2, §3, §4, §5

TIP5/TERT/E6/E7/ST cells = type: cell-based, human; details: Homo sapiens, 48 h, read-out: IC50, TIP5-TERT/E6E7 ST
Text: as §1, §2, §3, §4, §5

[1] = tested on: TIP5/TERT/E6/E7/ST/RAS^V12 cells; type: cell-based, human; details: Homo sapiens, 48 h, read-out: IC50, TIP5-TERT/E6E7 ST/Ras^V12
Text: as §1, §2, §3, §4, §5

TIP5/TERT/LT cells = type: cell-based, human; details: Homo sapiens, 48 h, read-out: IC50, TIP5 TERT/LT
Text: as §1, §2, §3, §4, §5

[2] = tested on: TIP5/TERT/LT/ST/RAS^V12 cells; type: cell-based, human; details: Homo sapiens, 48 h, read-out: IC50, TIP5 TERT/LT/ST/Ras^V12
Text: as §1, §2, §3, §4, §5

[3] = TIP-TERT/E6 cells, 16-point two-fold dilution, two days
[4] = TIP5 TERT/LT/ST cells, 16-point two-fold dilution, two days
[5] = TIP5-TERT cells, 16-point two-fold dilution, two days
[6] = TIP5-TERT/E6E7 cells, 16-point two-fold dilution, two days
[7] = TIP5-TERT/E6E7/ST cells, 16-point two-fold dilution, two days
[8] = TIP5-TERT/E6E7/ST/Ras^V12 cells, 16-point two-fold dilution, two days
[9] = TIP5 TERT/LT cells, 16-point two-fold dilution, two days
[10] = TIP5 TERT/LT/ST/Ras^V12 cells, 16-point two-fold dilution, two days

In the case of CCOc1ccccc1-n1c(C(C)N2CCN(C(=O)COc3ccc(Cl)cc3)CC2)nc2ccccc2c1=O (centres unmarked) [Erastin], the IC50 (TIP5/TERT/E6 cells; [3]) is reported as over 5 µg/mL, the IC50 (TIP5/TERT/LT/ST cells; [4]) is reported as 5 µg/mL (≈ 9.14 µM) and the IC50 (TIP5/TERT cells; [5]) is reported as over 5 µg/mL. For the same compound, the IC50 (TIP5/TERT/E6/E7 cells; [6]) was over 5 µg/mL, the IC50 (TIP5/TERT/E6/E7/ST cells; [7]) was over 5 µg/mL and the IC50 [1, 8] was 5 µg/mL (≈ 9.14 µM). For the same compound, the IC50 (TIP5/TERT/LT cells; [9]) was over 5 µg/mL and the IC50 [2, 10] was 2.5 µg/mL (≈ 4.57 µM).

In the case of COc1cccc2c1C(=O)c1c(O)c3c(c(O)c1C2=O)C[C@@](O)(C(C)=O)C[C@@H]3O[C@H]1C[C@H](N)[C@H](O)[C@H](C)O1 [Daunorubicin], the IC50 (TIP5/TERT/E6 cells) is reported as 5 µg/mL (≈ 9.48 µM), the IC50 (TIP5/TERT/LT/ST cells) is reported as 0.625 µg/mL (≈ 1.18 µM) and the IC50 (TIP5/TERT cells) is reported as over 5 µg/mL. The IC50 (TIP5/TERT/E6/E7 cells) was 0.625 µg/mL (≈ 1.18 µM), the IC50 (TIP5/TERT/E6/E7/ST cells) was 0.625 µg/mL (≈ 1.18 µM) and the IC50 [1] was 0.625 µg/mL (≈ 1.18 µM). The IC50 (TIP5/TERT/LT cells) was 1.25 µg/mL (≈ 2.37 µM) and the IC50 [2] was 0.825 µg/mL (≈ 1.56 µM).

COc1ccc(C[C@H]2C(=O)N[C@@H](C)C(=O)N(C)[C@@H]3C(=O)N(C)[C@@H](Cc4ccc(O)c(c4)Oc4ccc(cc4)[C@@H]3O)C(=O)N[C@H](C)C(=O)N[C@@H](C)C(=O)N2C)cc1 [Bouvardin] gave an IC50 (TIP5/TERT/E6 cells) of 0.078 µg/mL (≈ 0.101 µM), an IC50 (TIP5/TERT/LT/ST cells) of 0.039 µg/mL (≈ 0.0505 µM) and an IC50 (TIP5/TERT cells) of over 5 µg/mL. It also gave an IC50 (TIP5/TERT/E6/E7 cells) of 0.039 µg/mL (≈ 0.0505 µM), an IC50 (TIP5/TERT/E6/E7/ST cells) of 0.039 µg/mL (≈ 0.0505 µM) and an IC50 [1] of 0.078 µg/mL (≈ 0.101 µM). For the same compound, the IC50 (TIP5/TERT/LT cells) was 0.312 µg/mL (≈ 0.404 µM) and the IC50 [2] was 0.039 µg/mL (≈ 0.0505 µM).

In the case of O=C1c2c(O)ccc(O)c2C(=O)c2c(NCCNCCO)ccc(NCCNCCO)c21 [Mitoxantrone], the IC50 (TIP5/TERT/E6 cells; [3]) is reported as 1.25 µg/mL (≈ 2.81 µM), the IC50 (TIP5/TERT/LT/ST cells; [4]) is reported as 0.625 µg/mL (≈ 1.41 µM) and the IC50 (TIP5/TERT cells; [5]) is reported as over 5 µg/mL. It also gave an IC50 (TIP5/TERT/E6/E7 cells; [6]) of 0.625 µg/mL (≈ 1.41 µM), an IC50 (TIP5/TERT/E6/E7/ST cells; [7]) of 0.625 µg/mL (≈ 1.41 µM) and an IC50 [1, 8] of 1.25 µg/mL (≈ 2.81 µM). For the same compound, the IC50 (TIP5/TERT/LT cells; [9]) was 1.25 µg/mL (≈ 2.81 µM) and the IC50 [2, 10] was 1.25 µg/mL (≈ 2.81 µM).

In the case of CC[C@@]1(O)C(=O)OCc2c1cc1n(c2=O)Cc2cc3ccccc3nc2-1 [Camptothecin], the IC50 (TIP5/TERT/E6 cells; [3]) is reported as over 5 µg/mL, the IC50 (TIP5/TERT/LT/ST cells; [4]) is reported as 0.156 µg/mL (≈ 0.448 µM) and the IC50 (TIP5/TERT cells; [5]) is reported as over 5 µg/mL. For the same compound, the “activity in cells lacking RB function (via expression of E7)” value (TIP5/TERT/E6/E7 cells) was “partially active”, the IC50 (TIP5/TERT/E6/E7 cells; [6]) was 0.625 µg/mL (≈ 1.79 µM) and the IC50 (TIP5/TERT/E6/E7/ST cells; [7]) was 0.156 µg/mL (≈ 0.448 µM). The IC50 [1, 8] was 0.156 µg/mL (≈ 0.448 µM), the IC50 (TIP5/TERT/LT cells; [9]) was over 5 µg/mL and the IC50 [2, 10] was 0.156 µg/mL (≈ 0.448 µM).

In the case of COc1cccc2c1C(=O)c1c(O)c3c(c(O)c1C2=O)C[C@@](O)(C(=O)CO)C[C@@H]3O[C@H]1C[C@H](N)[C@H](O)[C@H](C)O1 [Doxorubicin], the IC50 (TIP5/TERT/E6 cells; [3]) is reported as 5 µg/mL (≈ 9.2 µM), the IC50 (TIP5/TERT/LT/ST cells; [4]) is reported as 0.625 µg/mL (≈ 1.15 µM) and the IC50 (TIP5/TERT cells; [5]) is reported as over 5 µg/mL. For the same compound, the IC50 (TIP5/TERT/E6/E7 cells; [6]) was 1.25 µg/mL (≈ 2.3 µM), the IC50 (TIP5/TERT/E6/E7/ST cells; [7]) was 1.25 µg/mL (≈ 2.3 µM) and the IC50 [1, 8] was 1.25 µg/mL (≈ 2.3 µM). For the same compound, the IC50 (TIP5/TERT/LT cells; [9]) was 1.25 µg/mL (≈ 2.3 µM) and the IC50 [2, 10] was 0.625 µg/mL (≈ 1.15 µM).

In the case of NC(=O)c1cn([C@@H]2O[C@H](CO)[C@@H](O)[C@H]2O)c2ncnc(N)c12 [Sangivamycin], the IC50 (TIP5/TERT/E6 cells) is reported as 0.156 µg/mL (≈ 0.504 µM), the IC50 (TIP5/TERT/LT/ST cells) is reported as 0.039 µg/mL (≈ 0.126 µM) and the IC50 (TIP5/TERT cells) is reported as 1.25 µg/mL (≈ 4.04 µM). For the same compound, the IC50 (TIP5/TERT/E6/E7 cells) was 0.078 µg/mL (≈ 0.252 µM), the IC50 (TIP5/TERT/E6/E7/ST cells) was 0.078 µg/mL (≈ 0.252 µM) and the IC50 [1] was 0.078 µg/mL (≈ 0.252 µM). The IC50 (TIP5/TERT/LT cells) was 0.312 µg/mL (≈ 1.01 µM) and the IC50 [2] was 0.078 µg/mL (≈ 0.252 µM).

CS[C@H]1SC[C@H]2C(=O)N(C)[C@@H](C(C)C)C(=O)OC[C@@H](NC(=O)c3cnc4ccccc4n3)C(=O)N[C@@H](C)C(=O)N(C)[C@@H]1C(=O)N(C)[C@@H](C(C)C)C(=O)OC[C@@H](NC(=O)c1cnc3ccccc3n1)C(=O)N[C@@H](C)C(=O)N2C [Echinomycin] gave an IC50 (TIP5/TERT/E6 cells) of over 5 µg/mL, an IC50 (TIP5/TERT/LT/ST cells) of 0.0048 µg/mL (≈ 0.00436 µM) and an IC50 (TIP5/TERT cells) of over 5 µg/mL. For the same compound, the IC50 (TIP5/TERT/E6/E7 cells) was 0.048 µg/mL (≈ 0.0436 µM), the IC50 (TIP5/TERT/E6/E7/ST cells) was 0.048 µg/mL (≈ 0.0436 µM) and the IC50 [1] was 0.0048 µg/mL (≈ 0.00436 µM). For the same compound, the IC50 (TIP5/TERT/LT cells) was 5 µg/mL (≈ 4.54 µM) and the IC50 [2] was 0.0024 µg/mL (≈ 0.00218 µM).
